Results on 29 molecules are retold here after US9591852B2, “Biofilm disruptive compositions” (McNeil-PPC, Inc., priority 2009, dated 2017).

This assay has as its system 48-hour salivary biofilm. Put plainly: Biofilm disruption screening assay: 48-hour salivary biofilm on polystyrene peg plate, ATP bioluminescence of bacteria remaining. Type of assay: cell-based. Particulars: for log RLU compound: treated twenty minutes, N=8. How it is done: (§1) A 48-hour salivary biofilm was grown on a polystyrene peg plate substrate (96 pegs, N=8 per test group). The pegs were subsequently treated for twenty minutes with each of the long chain alcohols formulations described above, as well as the negative control. After treatment, viable bacteria remaining on the substrate were removed by sonication using a Ultrasonic processor XL by Misonix (Farmingdale, N.Y.), lysed with Celsis Luminex (Celsis Rapid Detection Rapiscreen (Celsis International PLC, Chicago)) and ATP from the bacteria were measured using a bioluminescence marker Celsis LuminATE (Celsis Rapid Detection Rapiscreen (Celsis International PLC, Chicago)). Data was reported in log RLU (relative light units), where decreasing log RLUs indicates fewer bacteria remaining on the substrate and in M-factor units where M-factor is the difference between the log RLU values of the compound tested and the negative control.
as §1, with “marker.” for “marker”
To determine the concentration dependence of biofilm disruptor activity, a series of formulations was prepared with cis-2-nonen-1-ol concentration ranging from 0.0005% to 0.1%. These formulations were tested against the negative control in the biofilm disruption screening assay described in Examples 1 and 2. Data was reported in log RLU (relative light units) where decreasing log RLUs indicates fewer bacteria remaining on the substrate and in M-factor units where M-factor is the difference between the log RLU values of the compound tested and the negative control. […]

The mark [1] stands for this setting: 20 min, alcohol 0.05% (w/v), twenty minutes, difference between log RLU of compound and negative control, read-out: M-factor.
[2] abbreviates: unsaturated long chain alcohol 0.05% (w/v) in water/ethanol/Pluronic F-127, decreasing log RLU = fewer bacteria remaining.
Setting [3] is: 20 min, aldehyde 0.05% (w/v), twenty minutes, difference between log RLU of compound and negative control, read-out: M-factor.
Setting [4] is: unsaturated long chain aldehyde 0.05% (w/v) in water/ethanol/Pluronic F-127.

Structures are written as SMILES. Like-named read-outs stand apart in the source and are kept apart here.

As for `C=CC(O)CCCCCCC` (stereo not drawn) [1-decen-3-ol], the log reduction at 0.05 % under setting [1] came to 0.86. The “log RLU compound” value under setting [2] is recorded as 4.46 log RLU.
Regarding `C=CC(O)CCCCC` (stereo not drawn) [1-octen-3-ol], the log reduction at 0.05 % under setting [1] came out at 0.33. Further, the “log RLU compound” value under setting [2] came to 4.99 log RLU.
Take `CC(C)=CCCC(C)C=O` (stereo not drawn) [2,6-dimethyl-5-hepten-1-al]: the log reduction at 0.05 % under setting [3] worked out at 0.21. The “log RLU compound” value under setting [4] is on record as 5.07 log RLU.
As for `C=CCCCCCCCCO` [9-decen-1-ol], the log reduction at 0.05 % under setting [1] turned out to be 0.97. Moreover, under setting [2], the “log RLU compound” value is 4.35 log RLU.
With `CCC/C=C\CO` [cis-2-hexen-1-ol], under setting [1], the log reduction at 0.05 % was 0.11. Also, the “log RLU compound” value under setting [2] turned out to be 5.21 log RLU.
In the case of `CCCCCC/C=C\CO` [cis-2-nonen-1-ol], the log reduction at 0.05 % reads like this: under setting [1], 0.76; (20 min, formulation B, cis-2-nonen-1-ol 0.05% (w/v), vs negative control log RLU 5.63, read-out: M-factor) 0.82. Besides, the log reduction at 0.1 % (20 min, formulation A, cis-2-nonen-1-ol 0.1% (w/v), vs negative control log RLU 5.63, read-out: M-factor) turned out to be 0.82. Besides, for the setting “20 min, formulation C, cis-2-nonen-1-ol 0.025% (w/v), vs negative control log RLU 5.63, read-out: M-factor”, the log reduction at 0.025 % is 0.35. In addition, where the note is “20 min, formulation D, cis-2-nonen-1-ol 0.01% (w/v), vs negative control log RLU 5.63, read-out: M-factor”, the log reduction at 0.01 % was 0.04. Also, the log reduction at 0.005 % (20 min, formulation E, cis-2-nonen-1-ol 0.005% (w/v), vs negative control log RLU 5.63, read-out: M-factor) is -0.06. In addition, the log reduction at 0.001 % (20 min, formulation F, cis-2-nonen-1-ol 0.001% (w/v), vs negative control log RLU 5.63, read-out: M-factor) was -0.07. The log reduction at 0.0005 % (20 min, formulation G, cis-2-nonen-1-ol 0.0005% (w/v), vs negative control log RLU 5.63, read-out: M-factor) is -0.09. Further, the “log RLU” value (formulation A, cis-2-nonen-1-ol 0.1% (w/v)) came to 4.81 log RLU; the “log RLU” value (formulation B, cis-2-nonen-1-ol 0.05% (w/v)) is 4.82 log RLU; the “log RLU” value (formulation C, cis-2-nonen-1-ol 0.025% (w/v)) turned out to be 5.28 log RLU; the “log RLU” value (formulation D, cis-2-nonen-1-ol 0.01% (w/v)) came to 5.59 log RLU; the “log RLU” value (formulation E, cis-2-nonen-1-ol 0.005% (w/v)) was 5.69 log RLU; the “log RLU” value (formulation F, cis-2-nonen-1-ol 0.001% (w/v)) is on record as 5.70 log RLU. Moreover, under “formulation G, cis-2-nonen-1-ol 0.0005% (w/v)”, the “log RLU” value is reported as 5.72 log RLU. For the same molecule, the “log RLU compound” value under setting [2] was 4.57 log RLU.
Turning to `CCC/C=C\CCO` [cis-3-hepten-1-ol], the log reduction at 0.05 % under setting [1] turned out to be 0.25. The “log RLU compound” value under setting [2] was determined as 5.07 log RLU.
For `CC/C=C\CCO` [cis-3-hexen-1-ol] the same measures were 0.06 and 5.22 log RLU.
For `CCCCC/C=C\CCO` [cis-3-nonen-1-ol] the same measures were 0.76 and 4.56 log RLU.
The matching figures for `CCCCC/C=C\CCCO` [cis-4-decen-1-ol]: 0.62 and 4.71 log RLU.
As to `CCCCC/C=C\CCC=O` [cis-4-decenal], the log reduction at 0.05 % under setting [3] is 0.99. Also, the “log RLU compound” value under setting [4] is reported as 4.59 log RLU.
For `CC/C=C\CCC=O` [cis-4-hepten-1-al] the same measures were -0.04 and 5.14 log RLU.
In the case of `CC/C=C\CCCCO` [cis-5-octen-1-ol], the log reduction at 0.05 % under setting [1] is 0.31. The “log RLU compound” value under setting [2] came out at 5.01 log RLU.
Regarding `CC/C=C\CCCCCO` [cis-6-nonen-1-ol], the log reduction at 0.05 % under setting [1] was 0.72. In addition, the “log RLU compound” value under setting [2] is listed as 4.60 log RLU.
For the molecule `CC/C=C\CCCCC=O` [cis-6-nonenal], under setting [3], the log reduction at 0.05 % was determined as 0.44. The “log RLU compound” value under setting [4] is 4.84 log RLU.
For `CC/C=C\CCCCCC=O` [cis-7-decenal] the same measures were 0.33 and 5.25 log RLU.
With `CCCCCCC/C=C/CO` [trans-2-decen-1-ol], the log reduction at 0.05 % under setting [1] came out at 1.45. Also, under setting [2], the “log RLU compound” value was 4.13 log RLU.
On to `CCCCCCC/C=C/C=O` [trans-2-decenal], for which the log reduction at 0.05 % under setting [3] is 0.95. In addition, under setting [4], the “log RLU compound” value worked out at 4.63 log RLU.
Consider `CCCCCCCCC/C=C/CO` [trans-2-dodecen-1-ol], for which the log reduction at 0.05 % under setting [1] worked out at 0.88. Moreover, under setting [2], the “log RLU compound” value is on record as 4.44 log RLU.
Regarding `CCCCCCCCC/C=C/C=O` [trans-2-dodecenal], the log reduction at 0.05 % under setting [3] came out at 1. Moreover, under setting [4], the “log RLU compound” value is listed as 4.58 log RLU.
`CCCC/C=C/C=O` [trans-2-heptenal]: the log reduction at 0.05 % under setting [3] was 0.06. Moreover, the “log RLU compound” value under setting [4] is reported as 5.52 log RLU.
For the molecule `CCC/C=C/CO` [trans-2-hexen-1-ol], under setting [1], the log reduction at 0.05 % came to 0.12. Also, under setting [2], the “log RLU compound” value is 5.20 log RLU.
`CCC/C=C/C=O` [trans-2-hexenal]: under setting [3], the log reduction at 0.05 % was 0.19. For the same molecule, the “log RLU compound” value under setting [4] is reported as 5.39 log RLU.
Take `CCCCCC/C=C/CO` [trans-2-nonen-1-ol]: the log reduction at 0.05 % under setting [1] came out at 0.45. Also, the “log RLU compound” value under setting [2] is given as 4.83 log RLU.
Take `CCCCCC/C=C/C=O` [trans-2-nonenal]: the log reduction at 0.05 % under setting [3] was 0.92. Also, the “log RLU compound” value under setting [4] was determined as 4.66 log RLU.
With `CCCCC/C=C/CO` [trans-2-octen-1-ol], the log reduction at 0.05 % under setting [1] came out at 0.69. Moreover, the “log RLU compound” value under setting [2] is listed as 4.89 log RLU.
With `CCCCC/C=C/C=O` [trans-2-octenal], the log reduction at 0.05 % under setting [3] was 0.32. Further, under setting [4], the “log RLU compound” value is 5.26 log RLU.
For `CCCCCCCC/C=C/CO` [trans-2-undecen-1-ol], under setting [1], the log reduction at 0.05 % was 0.56. The “log RLU compound” value under setting [2] came to 4.72 log RLU.
Consider `CCCCCCCC/C=C/C=O` [trans-2-undecenal], for which the log reduction at 0.05 % under setting [3] amounted to 0.83. Moreover, under setting [4], the “log RLU compound” value is recorded as 4.49 log RLU.
